17 molecules from PubChem BioAssay (NCI) can be followed below.

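Cells were grown in 96-well plates and exposed to each compound for 48 hours at five concentrations; endpoints were interpolated linearly between bracketing concentrations, or set to the highest concentration if not reached. Abbreviation: GI50, concentration required for 50% inhibition of growth. TGI: total growth inhibition.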

Common to all, as to assay: inhibition of tumour cell growth, NCI panel, 48 h
The subject of assay [1] is SW-620 colon.
The subject of assay [2] is EKVX NSCLC.
The test system of assay [3] is OVCAR-3 ovarian.
Assay [4] has as its system HT29 colon.
The test system of assay [5] is TK-10 renal.
Assay [6] relates to HS 578T breast.
Assay [7] relates to HCT-15 colon.
In assay [8] the test system is SK-OV-3 ovarian.
Assay [9] concerns UACC-62 melanoma.
Assay [10] relates to M14 melanoma.

Consider `COc1cccc2c1nc1cccc(OC)c1[n+]2[O-]`, for which the GI50 was 3 µM in assay [1]; 13.7 µM in assay [2]; 15.7 µM in assay [3]; 1.55 µM in [4]; 16.3 µM in assay [5]; 5.23 µM in [6]. Moreover, the GI50 was 2.93 µM in [7], 3.19 µM in [8], 3.35 µM in assay [9] and 3.47 µM in [10]. Besides, the TGI turned out to be 15.9 µM in assay [1]; 30.9 µM in [2]; 39.2 µM in assay [3]; 13.9 µM in assay [4]; 47.6 µM in assay [5]; 31.2 µM in [6]. The TGI is 12.7 µM in assay [7], 15.7 µM in assay [8], 14.1 µM in [9] and 16.2 µM in assay [10].

Consider `C/C(=C1/N=C(c2ccccc2)OC1=O)c1ccc(C)cc1`, for which the TGI in assay [1], in [2], in assay [3], in assay [4], in assay [5] and in assay [6] was above 100 µM in each case. Besides, the TGI in assay [7], in [8], in assay [9] and in assay [10] was above 100 µM each time.

Regarding `COc1cc(CNc2nc3cc(N)cc(N)c3nc2-c2ccccc2)cc(OC)c1OC`, the GI50 was 1.54 µM in assay [1]; 1.94 µM in assay [2]; 1.15 µM in assay [3]; 8.63 µM in assay [4]; 6.25 µM in assay [5]; 3 µM in assay [6]. The GI50 in [7] is 3.27 µM; in [8] it was 5.36 µM; in assay [9], 8.09 µM; in assay [10] it was 9.52 µM. Besides, the TGI in [1] amounted to 4.51 µM; in assay [2], 8.31 µM; in [3] it was 3.42 µM; in [4] it was 19.5 µM; in assay [5], 17.9 µM; in [6], 33.4 µM. In addition, the TGI in assay [7] came out at 13.9 µM; in assay [8], 13.9 µM; in [9] it was 15.5 µM; in assay [10], 18.2 µM.

For `NC(=O)c1ccc2nc(-c3ccc(C4(N)CCC4)cc3)c(-c3ccccc3)n2n1`, the GI50 in assay [1] is 15 µM; in assay [2], 13.6 µM; in [3], 0.817 µM; in [4], 1.5 µM; in assay [5] it was 2.85 µM; in [6] it was 0.863 µM. Also, the GI50 is 11.5 µM in assay [7], 0.243 µM in assay [8], 10.3 µM in assay [9] and 14.3 µM in [10]. For the same molecule, the TGI is 31.3 µM in [1]; 49.6 µM in assay [2]; 22 µM in assay [3]; 25.7 µM in [4]; 27.8 µM in [5]; 10 µM in assay [6]. Moreover, the TGI in assay [7] was 33.1 µM; in [8] it was 12.7 µM; in assay [9] it was 22.7 µM; in assay [10], 28.6 µM.

For `O=C(Nc1ccc(Cl)cc1F)c1cc(F)ccc1O`, the GI50 in assay [1] is 1.46 µM; in [2], 1.88 µM; in [3], 0.528 µM; in [4], 3.24 µM; in assay [5], 4.69 µM; in assay [6], 0.718 µM. The GI50 is 1.46 µM in assay [7], 1.25 µM in assay [8], 0.289 µM in assay [9] and 1.11 µM in [10]. The TGI is 23.6 µM in assay [1]; 9.97 µM in assay [2]; 10.8 µM in assay [3]; above 34 µM in [4]; 23.1 µM in [5]; 5.3 µM in [6]. For the same molecule, the TGI in [7] is 9.62 µM; in assay [8] it was 10.4 µM; in [9], 1.15 µM; in [10], 5.44 µM.

Regarding `CN1C(=O)N(C)C2C1NN=c1s/c(=C\c3c[nH]c4ccccc34)c(=O)n12` (configuration not stated), the GI50 was 0.0442 µM in [1]; 0.0577 µM in assay [2]; 0.0325 µM in [3]; 0.0377 µM in [4]; 34.7 µM in [5]; 0.0342 µM in assay [6]. Besides, the GI50 is 0.0365 µM in assay [7], 0.082 µM in assay [8], 0.0464 µM in assay [9] and 0.0294 µM in [10]. Moreover, the TGI was above 100 µM in [1]; above 100 µM in [2]; above 100 µM in assay [3]; above 100 µM in assay [4]; above 100 µM in assay [5]; above 90.9 µM in assay [6]. For the same molecule, the TGI in assay [7], in assay [8], in [9] and in assay [10] was above 100 µM throughout.

Consider `Nc1c(S(=O)(=O)O)cc(Nc2cccc(S(N)(=O)=O)c2)c2c1C(=O)c1ccccc1C2=O`, for which the TGI in assay [1] was above 100 µM; in assay [2], above 100 µM; in assay [3] it was above 100 µM; in assay [4] it was above 100 µM; in assay [5] it was above 100 µM; in [6], 69.9 µM. Moreover, the TGI was above 100 µM in assay [7], 84.6 µM in [8], 58.7 µM in assay [9] and above 100 µM in assay [10].

On to `COc1cc(/C=C2\CCCC3C2=Nc2ccccc2NC3c2cc(OC)c(OC)c(OC)c2)cc(OC)c1OC` (configuration not stated), for which the GI50 was 1.6 µM in assay [1]; 7.45 µM in assay [2]; 2.08 µM in assay [3]; 1.21 µM in assay [4]; 3.49 µM in [5]; 4.75 µM in assay [6]. The GI50 in assay [7] is 1.77 µM; in assay [8], 4.87 µM; in [9], 1.37 µM; in assay [10] it was 1.27 µM. For the same molecule, the TGI in [1] is 6.77 µM; in assay [2] it was above 100 µM; in assay [3] it was 6.07 µM; in assay [5], 17.7 µM; in assay [6], above 100 µM; in assay [7], 4.08 µM. Further, the TGI is above 100 µM in assay [8], 3.52 µM in assay [9] and 4.23 µM in assay [10].

Turning to `[C-]#[O+].[C-]#[O+].[Ir].[O-]c1ccc2ccccc2c1N=Nc1ccccc1`, the TGI in [1] is 5.37 µM; in assay [2], 49.1 µM; in [3], 17 µM; in assay [4] it was 20.6 µM; in assay [5] it was 17.3 µM; in [6] it was above 100 µM. In addition, the TGI in assay [7] was 19.8 µM; in [8], above 68 µM; in [9], 29.2 µM; in [10], 13.2 µM. For the same molecule, in [2], the GI50 was 19.4 µM.

For the molecule `CCCCCCCCCCCCOC1C(CNCC2OC3OC(C)(C)OC3C2NC(=O)Nc2ccc(C(F)(F)F)cc2)OC2OC(C)(C)OC21` (configuration not stated), the GI50 in assay [1] is 4.09 µM; in assay [2], 7.49 µM; in [3], 4.59 µM; in [4] it was 3.14 µM; in [5], 3.39 µM; in assay [6], 5.39 µM. For the same molecule, the GI50 is 7.47 µM in assay [7], 9.06 µM in assay [8], 8.63 µM in assay [9] and 8.27 µM in [10]. For the same molecule, the TGI was determined as 10.2 µM in assay [1]; 14.5 µM in [2]; 13.3 µM in assay [3]; 7.07 µM in [4]; 7.86 µM in assay [5]; 14.1 µM in [6]. Moreover, the TGI came out at 15 µM in assay [7], 17.2 µM in [8], 15.9 µM in assay [9] and 15.8 µM in assay [10].

Turning to `COc1cccc2c1C(=O)c1c(O)c3c(c(O)c1C2=O)C[C@@](O)(C(=O)CO)C[C@@H]3OC1CC(OC(C)=O)C(OC(C)=O)C(C)O1` (some centres not stated), the GI50 was 0.277 µM in [1]; 1.92 µM in [2]; 0.965 µM in [3]; 1.02 µM in [4]; 0.985 µM in [5]; 0.491 µM in assay [7]. For the same molecule, the GI50 in [8] is 0.83 µM; in assay [9] it was 0.23 µM; in [10], 0.529 µM. Further, the TGI is 3.45 µM in assay [1]; 9.5 µM in assay [2]; 4.57 µM in assay [3]; above 32.1 µM in assay [4]; 6.43 µM in assay [5]; 4.14 µM in [6]. Besides, the TGI is 6.75 µM in assay [7], 6.5 µM in assay [8], 1.89 µM in [9] and 2.26 µM in [10].

Consider `c1ccc(CCCNc2nnnc3ccccc23)cc1`, for which the TGI in assay [1], in [2], in assay [3], in assay [4], in [5] and in assay [6] was above 100 µM in each case. Moreover, the TGI in assay [7], in assay [8], in assay [9] and in assay [10] was above 100 µM in each case.

In the case of `Clc1nc(Cl)c2ncn(C/C=C/Cn3cnc4c(Cl)nc(Cl)nc43)c2n1`, the GI50 is 8.72 µM in assay [1]; 20.5 µM in assay [2]; 12.2 µM in assay [3]; 14.7 µM in [4]; 21.7 µM in [5]; 14.6 µM in [6]. In addition, the GI50 was 16.1 µM in assay [7], 44.3 µM in assay [8], 17.5 µM in assay [9] and 21.2 µM in assay [10]. Besides, the TGI was 22.5 µM in assay [1]; 36.9 µM in [2]; 25.4 µM in assay [3]; 29.9 µM in assay [4]; 39 µM in assay [5]; 35.1 µM in assay [6]. Also, the TGI in assay [7] was 30.2 µM; in assay [8], above 100 µM; in [9] it was 32.1 µM; in [10] it was 39.7 µM.

Regarding `FC(F)(F)c1[nH]ncc1-c1nc2c(N3CCCCC3)cc3[nH]ncc3c2c2c1CCCC2`, the GI50 in [1] was 0.556 µM; in [2], 0.868 µM; in assay [3], 1.07 µM; in [4] it was 1.3 µM; in assay [5], 0.615 µM; in assay [6], 0.603 µM. Moreover, the GI50 was 1.07 µM in assay [7], 0.523 µM in [8], 0.391 µM in assay [9] and 0.6 µM in assay [10]. The TGI was 2.67 µM in assay [1]; 2.48 µM in [2]; 3.14 µM in assay [3]; above 50 µM in assay [4]; above 50 µM in assay [5]; 2 µM in [6]. Also, the TGI in assay [7] is above 16.5 µM; in assay [8] it was 4.22 µM; in assay [9], 1.41 µM; in assay [10], 1.42 µM.

For `O=C(C[C@@]1(O)C(=O)Nc2c(Cl)ccc(Cl)c21)c1ccc(C2CC2)cc1`, the GI50 in assay [1] is 0.19 µM; in [2], 0.631 µM; in assay [3], 0.264 µM; in [4], 0.222 µM; in [5] it was 15.1 µM; in assay [6], 0.305 µM. For the same molecule, the GI50 was 0.102 µM in [7], 0.613 µM in [8], 0.378 µM in assay [9] and 0.184 µM in assay [10]. For the same molecule, the TGI was 16.5 µM in [1]; 30.7 µM in [2]; 3.71 µM in assay [3]; 13.7 µM in assay [4]; 46.6 µM in [5]; 10 µM in [6]. The TGI in assay [7] is 13.6 µM; in assay [8] it was 39.1 µM; in assay [9] it was 15.6 µM; in [10], 13.8 µM.

For `COc1cc([N+](=O)[O-])c(S(=O)(=O)O)cc1N`, the TGI in [1], in assay [2], in [3], in assay [4], in [5] and in assay [6] was above 100 µM throughout. Further, the TGI in [7], in assay [8], in assay [9] and in assay [10] was above 100 µM in each case.

Turning to `CCN1CCC2(CC1)NC(=O)c1c(c3ccc(Cl)c(Cl)c3n1C)C2C#N` (configuration not stated), the GI50 in [1] was 1.94 µM; in assay [2], 3.4 µM; in assay [4] it was 1.92 µM; in [5], 1.8 µM; in assay [6] it was 1.81 µM; in assay [7], 1.81 µM. Also, the GI50 is 6.99 µM in assay [8], 1.77 µM in assay [9] and 1.62 µM in [10]. The TGI in [1] is 3.77 µM; in assay [2] it was 17.8 µM; in [4] it was 4.11 µM; in assay [5] it was 5.38 µM; in assay [6], 5.57 µM; in assay [7] it was 4.75 µM. The TGI is 22.2 µM in assay [8], 3.32 µM in assay [9] and 3.1 µM in [10].
